Like-named read-outs stand apart in the source and are kept apart here.
Experiments:
[1] = tested on: 647V cells; experiment: High throughput proliferation (HTP) assay; type: cell-based; conditions: high throughput proliferation, read-out: CREBBP HTP IC50
Summary of the method: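 Proliferation IC50 (micromolar) derived from a 7-day CellTiter-Glo viable-cell readout in 647V cells exposed, in triplicate, to rising compound concentrations; cells grown in DMEM plus 15% heat-inactivated FBS at 37° C under 5% CO2.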

[2] = target: T1, CREBBP (1084-1701) (Homo sapiens, UniProt Q92793); experiment: Biochemical assay for CREBBP (1084-1701), SAMDI; conditions: SAMDI, read-out: CREBBP Biochemistry IC50
T1 construct: measured in the following biochemical assay using CREBBP (1084-1701); purchased
Summary of the method: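 Acetyltransferase activity measured by SAMDI mass spectrometry after capture on biochip. Enzyme sat with compound 30 min at RT before acetyl-CoA and biotinylated H3 11-25 (K14R, K23R) peptide were added for 30 min at RT. Formic acid quench, bicarbonate neutralisation; IC50 values reported.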

[3] = target: T2, EP300 (P300(1048-1664)) (Homo sapiens, UniProt Q09472); experiment: Biochemical assay for EP300, SAMDI; conditions: EP300, SAMDI; read-out: EP300 Biochemistry IC50
T2 construct: P300(1048-1664)
T2 sequence (Q09472 1048-1664): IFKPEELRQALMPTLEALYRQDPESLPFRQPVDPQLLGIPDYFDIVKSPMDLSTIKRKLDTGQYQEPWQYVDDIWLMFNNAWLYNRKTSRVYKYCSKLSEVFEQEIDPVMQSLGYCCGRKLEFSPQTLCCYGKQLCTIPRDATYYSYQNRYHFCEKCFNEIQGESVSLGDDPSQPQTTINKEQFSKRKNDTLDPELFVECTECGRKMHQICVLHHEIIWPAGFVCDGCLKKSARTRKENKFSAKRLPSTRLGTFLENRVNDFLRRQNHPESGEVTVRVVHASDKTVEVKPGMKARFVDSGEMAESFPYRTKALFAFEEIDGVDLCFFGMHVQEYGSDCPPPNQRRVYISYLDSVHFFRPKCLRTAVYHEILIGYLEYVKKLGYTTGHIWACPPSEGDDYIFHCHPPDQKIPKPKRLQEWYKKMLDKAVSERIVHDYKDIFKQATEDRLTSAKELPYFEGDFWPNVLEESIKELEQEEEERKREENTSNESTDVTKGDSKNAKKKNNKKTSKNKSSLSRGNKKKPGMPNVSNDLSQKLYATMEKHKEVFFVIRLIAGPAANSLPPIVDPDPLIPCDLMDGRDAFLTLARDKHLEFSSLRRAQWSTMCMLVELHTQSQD
From the text: The following example describes materials and methods relating to a biochemical assay for EP300. IC50 values (micromolar (μM)) are summarized in Table 1, Table 2, and Table 3 under the column labeled: “EP300 Biochemistry IC50 (micromolar).”

[4] = tested on: H3K18Ac in HB-CLS-2 cells; experiment: H3K18AC in-cell western (ICW) assay; type: cell-based; conditions: H3K18Ac in-cell western, read-out: CREBBP ICW IC50
Summary of the method: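 In-cell western: after methanol fixation, blocking, overnight 4° C anti-H3K18Ac staining, then 800CW secondary plus DRAQ5 for DNA content, integrated intensities were scanned at 800 and 700 nm. Before this, compound exposure lasted 2 hr at 37° C in HB-CLS-2 cells plated 16–24 hours earlier. Values expressed as IC50 (μM).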

[5] = Homo sapiens, 647-V, 647V cells

T1 sequence (Q92793 1084-1701): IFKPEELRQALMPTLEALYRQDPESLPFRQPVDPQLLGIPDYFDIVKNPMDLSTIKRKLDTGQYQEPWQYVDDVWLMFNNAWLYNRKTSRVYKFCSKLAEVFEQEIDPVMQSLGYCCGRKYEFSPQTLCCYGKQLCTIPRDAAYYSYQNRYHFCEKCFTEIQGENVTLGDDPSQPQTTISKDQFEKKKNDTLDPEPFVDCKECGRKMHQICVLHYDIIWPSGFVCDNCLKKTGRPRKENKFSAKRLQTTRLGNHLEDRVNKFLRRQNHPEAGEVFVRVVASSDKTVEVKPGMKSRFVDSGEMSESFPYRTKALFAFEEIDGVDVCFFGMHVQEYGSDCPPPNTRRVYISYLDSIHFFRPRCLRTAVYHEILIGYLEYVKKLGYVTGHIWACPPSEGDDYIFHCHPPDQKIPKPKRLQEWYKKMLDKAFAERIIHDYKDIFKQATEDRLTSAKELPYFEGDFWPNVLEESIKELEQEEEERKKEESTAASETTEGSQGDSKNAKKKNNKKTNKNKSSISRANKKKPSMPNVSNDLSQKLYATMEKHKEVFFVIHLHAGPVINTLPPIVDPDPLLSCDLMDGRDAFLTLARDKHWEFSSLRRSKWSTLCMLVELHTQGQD

CCn1ncc(CN(C)C(=O)c2nc(-c3ccc(NC4CCOCC4)c(C)c3)nc3ccc(Cl)cc23)c1C [Compound 387]
IC50 [1, 5]: 0.088 µM | IC50 [2]: 0.016 µM | IC50 [3]: 0.0075 µM | IC50 ([4]; HB-CLS-2 cells): 0.12 µM

CCn1ncc(CN(C)C(=O)c2nc(-c3cc(N)c4cn[nH]c4c3)nc3ccc(Cl)cc23)c1C [Compound 438]
IC50 ([1]; Homo sapiens, 647-V): 0.0785 µM | IC50 [2]: 0.0025 µM | IC50 [3]: 0.0378 µM | IC50 [4]: 0.0848 µM

CCn1ncc(CN(C)C(=O)c2cc(-c3ccc(OCCNC)c(Cl)c3)nc3ccc(P(C)(C)=O)cc23)c1C [Compound 407]
IC50 ([1]; 647V cells): 7.4 µM | IC50 [2]: 2.1 µM | IC50 [3]: 0.7 µM | IC50 ([4]; HB-CLS-2 cells): 18 µM

CCn1ncc(CN(C)C(=O)c2nc(-c3cc4c(N)n[nH]c4cc3C)nc3ccc(Br)cc23)c1C [Compound 535]
IC50 ([1]; Homo sapiens, 647-V): 0.0581 µM | IC50 [2]: 0.012 µM | IC50 [3]: 0.0041 µM | IC50 [4]: 0.0583 µM

CCn1ncc(CN(C)C(=O)c2nc(-c3cc4c(C)[nH]nc4cc3Cl)nc3ccc(Cl)cc23)c1C [Compound 1]
IC50 ([1]; Homo sapiens, 647-V): 0.02 µM | IC50 [2]: 0.0033 µM | IC50 [3]: 0.0021 µM | IC50 [4]: 0.027 µM

CCn1ncc(CN(C)C(=O)c2nc(-c3ccnc(NC)c3)nc3ccc(Cl)cc23)c1C [Compound 155]
IC50 ([1]; Homo sapiens, 647-V): 5 µM | IC50 [2]: 35 µM | IC50 [3]: 26 µM | IC50 [4]: 9.3 µM

CCn1ncc(CN(C)C(=O)c2nc(-c3cc(Cl)cc(NCCNC)c3)nc3ccc(Cl)cc23)c1C [Compound 12]
IC50 ([1]; Homo sapiens, 647-V): 0.032 µM | IC50 [2]: 0.013 µM | IC50 [3]: 0.0035 µM | IC50 [4]: 0.11 µM

CCn1ncc(CN(C)C(=O)c2nc(-c3ccc(NC4CCNCC4)cn3)nc3ccc(Cl)cc23)c1C [Compound 153]
IC50 [1]: 4.9 µM | IC50 [2]: 0.39 µM | IC50 [3]: 0.35 µM | IC50 [4]: 9 µM

CCn1ncc(CN(C)C(=O)c2nc(-c3cc(C)c4[nH]c(=O)[nH]c4c3)nc3ccc(Cl)cc23)c1C [Compound 436]
IC50 ([1]; Homo sapiens, 647-V): 0.0942 µM | IC50 [2]: 0.00721 µM | IC50 [3]: 0.0042 µM | IC50 [4]: 0.13 µM

CCn1ncc(CN(C)C(=O)c2nc(-c3cc(C(=O)NCCCN4CCCC4)[nH]n3)nc3ccc(Cl)cc23)c1C [Compound 75]
IC50 ([1]; Homo sapiens, 647-V): 0.51 µM | IC50 [2]: 0.13 µM | IC50 [3]: 0.054 µM | IC50 [4]: 1 µM

CCn1ncc(CN(C)C(=O)c2nc(-c3cn(CCNC)nc3C)nc3ccc(Cl)cc23)c1C [Compound 144]
IC50 ([1]; Homo sapiens, 647-V): 3.3 µM | IC50 [2]: 5.4 µM | IC50 [3]: 8.9 µM | IC50 [4]: 8.4 µM

CCn1ncc(CN(C)C(=O)c2cc(-c3ccc(N(C)C)nn3)nc3ccc(Cl)cc23)c1C [Compound 502]
IC50 ([1]; Homo sapiens, 647-V): 9.01 µM | IC50 [2]: 10.6 µM | IC50 [3]: 4.85 µM | IC50 [4]: 2.53 µM

CCn1ncc(CN(C)C(=O)c2nc(-n3cc(C)cn3)nc3ccc(Cl)cc23)c1C [Compound 182]
IC50 ([1]; Homo sapiens, 647-V): 7.8 µM | IC50 [2]: 70 µM | IC50 [3]: 19 µM | IC50 [4]: 19 µM

CCn1ncc(CN(C)C(=O)c2nc(-c3ccc(OCCNC)c(Cl)c3)nc3ccc(S(C)(=O)=O)cc23)c1C [Compound 453]
IC50 ([1]; Homo sapiens, 647-V): 1.2 µM | IC50 [2]: 3.91 µM | IC50 [3]: 2.36 µM | IC50 [4]: 4.83 µM

CCn1ncc(CN(C)C(=O)c2nc(-c3ccc(NC4CCOCC4)c(OC)c3)nc3ccc(Cl)cc23)c1C [Compound 64]
IC50 ([1]; Homo sapiens, 647-V): 0.58 µM | IC50 [2]: 0.079 µM | IC50 [3]: 0.3 µM | IC50 [4]: 0.71 µM

CCc1nc(-c2cc(C(=O)N(C)Cc3cnc(CC)n3C)c3cc(COC)ccc3n2)ccc1NCCN(C)C [Compound 580]
IC50 ([1]; Homo sapiens, 647-V): 0.13 µM | IC50 [2]: 0.0659 µM | IC50 [3]: 0.0439 µM | IC50 [4]: 0.176 µM

CCn1ncc(CN(C)C(=O)c2cc(-c3cc(NC(=O)CNC)cc(C)n3)nc3ccc(Cl)cc23)c1C [Compound 397]
IC50 [1, 5]: 0.16 µM | IC50 [2]: 0.043 µM | IC50 [3]: 0.042 µM | IC50 ([4]; HB-CLS-2 cells): 0.13 µM

CCn1ncc(CN(C)C(=O)c2cc(-c3ccc(NC4CCNC4)c(C)n3)nc3ccc(Cl)cc23)c1C (centres unmarked) [Compound 472]
IC50 ([1]; Homo sapiens, 647-V): 0.048 µM | IC50 [2]: 0.0254 µM | IC50 [3]: 0.01 µM | IC50 [4]: 0.133 µM

CCn1ncc(CN(C)C(=O)c2nc(-c3ccc4n[nH]c(NC)c4c3)nc3ccc(Cl)cc23)c1C [Compound 558]
IC50 ([1]; Homo sapiens, 647-V): 0.0763 µM | IC50 [2]: 0.00427 µM | IC50 [3]: 0.0015 µM | IC50 [4]: 0.0393 µM

CCn1ncc(CN(C)C(=O)c2nc(-c3ccc(OCCCNC)cc3)nc3ccc(Cl)cc23)c1C [Compound 110]
IC50 ([1]; Homo sapiens, 647-V): 1.4 µM | IC50 [2]: 3.2 µM | IC50 [3]: 4.4 µM | IC50 [4]: 2.6 µM

CCn1ncc(CN(C)C(=O)c2cc(-c3cccc(N)n3)nc3ccc(Cl)cc23)c1C [Compound 63]
IC50 ([1]; Homo sapiens, 647-V): 1.5 µM | IC50 [2]: 0.44 µM | IC50 [3]: 0.24 µM | IC50 [4]: 0.71 µM

CCn1ncc(CN(C)C(=O)c2cc(-c3cn(C)cn3)nc3ccc(Cl)cc23)c1C [Compound 119]
IC50 ([1]; Homo sapiens, 647-V): 0.69 µM | IC50 [2]: 4.5 µM | IC50 [3]: 1.3 µM | IC50 [4]: 3.3 µM

CCn1ncc(CN(C)C(=O)c2cc(-c3cc4[nH]cnc4c(C)n3)nc3ccc(COC)cc23)c1C [Compound 530]
IC50 ([1]; Homo sapiens, 647-V): 0.248 µM | IC50 [2]: 0.0503 µM | IC50 [3]: 0.0125 µM | IC50 [4]: 0.154 µM

CCn1ncc(CN(C)C(=O)c2nc(-c3cc(OC)c4cn[nH]c4c3)nc3ccc(Cl)cc23)c1C [Compound 390]
IC50 [1, 5]: 0.68 µM | IC50 [2]: 0.033 µM | IC50 [3]: 0.14 µM | IC50 ([4]; HB-CLS-2 cells): 0.65 µM

CNCCNc1ccc(-c2cc(C(=O)N(C)Cc3cn[nH]c3C)c3cc(Cl)ccc3n2)nc1C [Compound 564]
IC50 ([1]; Homo sapiens, 647-V): 9.53 µM | IC50 [2]: ≥ 50 µM | IC50 [3]: ≥ 50 µM | IC50 [4]: 20 µM

CCn1ncc(CN(C)C(=O)c2cc(-c3cnc(CNC)[nH]3)nc3ccc(Cl)cc23)c1C [Compound 149]
IC50 ([1]; Homo sapiens, 647-V): 9.2 µM | IC50 [2]: 14 µM | IC50 [3]: 6.7 µM | IC50 [4]: 7.8 µM

CCn1ncc(CN(C)C(=O)c2nc(N3CCn4cc(C)nc4C3)nc3ccc(Cl)cc23)c1C [Compound 220]
IC50 [1, 5]: 20 µM | IC50 [2]: 141 µM | IC50 [3]: 100 µM | IC50 ([4]; HB-CLS-2 cells): 20 µM

CCn1ncc(CN(C)C(=O)c2nc(-c3cc(NCCNC)cc(OC)c3)nc3ccc(Cl)cc23)c1C [Compound 5]
IC50 ([1]; Homo sapiens, 647-V): 0.035 µM | IC50 [2]: 0.016 µM | IC50 [3]: 0.011 µM | IC50 [4]: 0.06 µM

CCn1ncc(CN(C)C(=O)c2cc(-c3ccc(N(C)CCNC)c(C)n3)nc3ccc(Cl)cc23)c1C [Compound 417]
IC50 [1, 5]: 3.1 µM | IC50 [2]: 22 µM | IC50 [3]: 16 µM | IC50 ([4]; HB-CLS-2 cells): 4.9 µM

Source: patent US20220144812A1, “QUINOLINE DERIVATIVES AND THEIR USE FOR THE TREATMENT OF CANCER” (Epizyme, Inc., priority 2019, published 2022)
